Experimental data reported in US20150086504A1, “POLYMERIC MICROEMULSIONS” (Janssen Pharmaceutica NV, priority 2002, published 2015).
≈ marks a conversion by molar mass, not a printed value. Like-named read-outs stand apart in the source and are kept apart here.

Experiments:
[1] = Solubility of model compounds in aqueous solutions of polymer D4.1 (mixed directly with polymeric solution; Table 4B); type: physicochemical; conditions: room temperature, duplicate; for solubility at 24 h: thermodynamic from solid
Description: The solubility of the other model compounds in aqueous solutions of polymer D4.1 was determined by mixing the model compound directly with the polymeric solution for 24 hours at room temperature. Tested polymer concentrations were 1, 5, 10 and 20% (w/v). The obtained suspension was then filtered through a 0.45 μm PVDF membrane filter. The filtered solution was immediately diluted to allow determination of compound concentration by UV spectroscopy. (A polymer solution of the same concentration as the sample to be analysed was used as blank).

[2] = Solubility in water of model compounds (UV spectroscopy); conditions: for solubility in water: mixed with water for 24 hours, UV spectroscopy, mean of triplicate; for solubility at 24 h: water, thermodynamic from solid
physchem = conditions: water, thermodynamic from solid
[3] = 24 h
[4] = Pharmacokinetic parameters in plasma (LCMS) after oral administration of risperidone solutions; type: in vivo, Male Wistar rats; conditions: rat plasma, active metabolite, micellar solution D4.3 10% (w/v) compared to reference solution
Description: Male Wistar rats (˜200 g) were treated by oral administration of vehicles of 2.5 mg/kg risperidone solubilized in three different vehicles (tartaric acid 0.625% v/v (as the reference), copolymer D4.3 1% (w/v) in water and D4.3 10% (w/v) in water). The animals were sacrificed by decapitation 2 hours after administration.
The above experiment was also performed in function of time for the reference solution and for the D4.3 10% (w/v) aqueous solution. Therefore, animals were sacrificed by decapitation at 10 minutes, 30 minutes, 1 hour, 2 hours, 4 hours, 8 hours, 16 hours and 24 hours after administration of the risperidone formulations. […] During this experiment, the usual pharmacokinetic parameters of the active metabolite following oral administration of the two risperidone solutions were determined by LCMS analysis of the plasma samples. […] This finding confirmed the results of an in vitro release study of risperidone from a micellar solution of the present invention. The in vitro release study was performed by dialysing a micellar solution of the invention containing C^14-radioactive risperidone against water and determining the radioactivity by liquid scintillation counting of samples taken from the water as a function of time.

[5] = D4.1 polymer concentration 1 w/v %
[6] = D4.1 polymer concentration 5 w/v %
[7] = D4.1 polymer concentration 10 w/v %
[8] = D4.1 polymer concentration 20 w/v %
[9] = 1% (w/v) aqueous solution of diblock copolymer D4.1, aqueous with cosolvent or surfactant or cyclodextrin, D4.1 polymer concentration 1 w/v %
[10] = 5% (w/v) aqueous solution of diblock copolymer D4.1, aqueous with cosolvent or surfactant or cyclodextrin, D4.1 polymer concentration 5 w/v %
[11] = 10% (w/v) aqueous solution of diblock copolymer D4.1, aqueous with cosolvent or surfactant or cyclodextrin, D4.1 polymer concentration 10 w/v %
[12] = 20% (w/v) aqueous solution of diblock copolymer D4.1, aqueous with cosolvent or surfactant or cyclodextrin, D4.1 polymer concentration 20 w/v %

Row | SMILES | Solubility in aqueous solution of diblock copolymer D4.1 [1, 6] [µg/mL] | solubility at 24 h [1, 9] [µg/mL] | solubility at 24 h [1, 10] [µg/mL] | solubility at 24 h [1, 11] [µg/mL] | solubility at 24 h [1, 12] [µg/mL] | solubility at 24 h [2] [µg/mL] | solubility at 24 h (physchem) [µg/mL] | other results
1 | COc1cc2c(cc1OC)C1=NO[C@@H](CN3CCN(C/C(C)=C/c4ccc(F)cc4)CC3)[C@@H]1CO2 (relative stereo) [3-[[4-[(2E)-3-(4-fluorophenyl)-2-methyl-2-propenyl]-1-piperazinyl]methyl]-3a,4-dihydro-7,8-dimethoxy-3H-[1]benzopyrano[4,3-c]isoxazole [(3R,3aS)-rel-(+)]] | 1010 |  |  |  |  |  |  | Solubility in aqueous solution of diblock copolymer D4.1 [1, 5]: 200 µg/mL; Solubility in aqueous solution of diblock copolymer D4.1 [1, 7]: 1880 µg/mL; Solubility in aqueous solution of diblock copolymer D4.1 [1, 8]: 3860 µg/mL; solubility in water [2]: 3 µg/mL (≈ 6.23 µM)
2 | CS(=O)(=O)O.O=c1c2c([nH]c3ccccc13)[C@@H](c1ccc3c(c1)CCO3)N(c1ccccn1)C2 [3-(2,3-dihydro-5-benzofuranyl)-1,2,3,4-tetrahydro-2-(2-pyridinyl)-9H-pyrrolo[3,4-b]quinolin-9-one, (3R) mono methanesulfonate] | 9830 |  |  |  |  |  |  | Solubility in aqueous solution of diblock copolymer D4.1 [1, 5]: 4370 µg/mL; Solubility in aqueous solution of diblock copolymer D4.1 [1, 7]: 12380 µg/mL; Solubility in aqueous solution of diblock copolymer D4.1 [1, 8]: 13950 µg/mL; solubility in water [2]: 190 µg/mL
3 | O=c1c2c([nH]c3ccccc13)[C@@H](c1ccc3c(c1)CCO3)N(c1ncc(-c3ccccn3)cn1)C2 [3-(2,3-dihydro-5-benzofuranyl)-1,2,3,4-tetrahydro-2-[5-(2-pyridinyl)-2-pyrimidinyl]-9H-pyrrolo[3,4-b]quinolin-9-one, (3R)] | 81 |  |  |  |  |  |  | Solubility in aqueous solution of diblock copolymer D4.1 [1, 5]: 18 µg/mL; Solubility in aqueous solution of diblock copolymer D4.1 [1, 7]: 150 µg/mL; Solubility in aqueous solution of diblock copolymer D4.1 [1, 8]: 280 µg/mL; solubility in water [2]: <1 µg/mL
4 | Cc1cc(C=CC#N)cc(C)c1Nc1ccnc(Nc2ccc(C#N)cc2)n1 [4-[[4-[[4-(2-cyanoethenyl)-2,6-dimethylphenyl]amino]-2-pyrimidinyl]amino]benzonitrile] |  | 50 (≈ 136 µM) | 120 (≈ 327 µM) | 230 (≈ 628 µM) | 440 (≈ 1200 µM) | 0.02 (≈ 0.0546 µM) |  | 
5 | Cc1cc2c(cc1-c1cc(/C=C3\SC(=O)NC3=O)ccc1OC(F)(F)F)C(C)(C)CCC2(C)C [(Z) 5-[[3-(5,6,7,8-tetrahydro-3,5,5,8,8-pentamethyl-2-naphthalenyl)-4-(trifluoromethoxy)phenyl]methylene]-2,4-thiazolidinedione] |  | 34 (≈ 69.5 µM) | 130 (≈ 266 µM) | 350 (≈ 715 µM) | 580 (≈ 1180 µM) |  | < 0.5 | 
6 | C[C@@H]1[C@H](O)[C@@H](C)/C=C/C=C/C=C/C=C/C=C/C=C/C=C/[C@H](O[C@@H]2O[C@H](C)[C@@H](O)[C@H](N)[C@@H]2O)C[C@@H]2O[C@](O)(C[C@@H](O)C[C@@H](O)[C@H](O)CC[C@@H](O)C[C@@H](O)CC(=O)O[C@H]1C)C[C@H](O)[C@H]2C(=O)O [Amphotericin B, amphotericin B] |  |  |  |  |  |  | 0.1 (≈ 0.108 µM) | 
7 | COc1ccc2c(c1)c(CC(=O)O)c(C)n2C(=O)c1ccc(Cl)cc1 [Indomethacin, indomethacin] |  |  |  |  |  |  | 10 (≈ 27.9 µM) | solubility in water [3]: 10 µg/mL (≈ 27.9 µM)
8 | Cc1nc2n(c(=O)c1CCN1CCC(c3noc4cc(F)ccc34)CC1)CCCC2 [Risperidone, risperidone] |  |  |  |  |  |  | 60 (≈ 146 µM) | AUC [4]: slightly higher; Cmax [4]: lower; half-life [4]: longer

Second part, led by results:

Row | Solubility in aqueous solution of diblock copolymer D4.1 [1, 6] [µg/mL] | solubility at 24 h [1, 9] [µg/mL] | solubility at 24 h [1, 10] [µg/mL] | solubility at 24 h [1, 11] [µg/mL] | solubility at 24 h [1, 12] [µg/mL] | solubility at 24 h [2] [µg/mL] | solubility at 24 h (physchem) [µg/mL] | SMILES | other results
9 |  |  |  |  |  | 10 (≈ 18.8 µM) |  | CC(=O)N1CCN(c2ccc(OCC3COC(Cn4ccnc4)(c4ccc(Cl)cc4Cl)O3)cc2)CC1 (stereo not shown) [Ketoconazole, ketoconazole] | 
10 |  | 530 (≈ 1340 µM) | 2710 (≈ 6870 µM) | 5760 (≈ 14600 µM) | 13900 (≈ 35200 µM) |  | 15 (≈ 38 µM) | Nc1nc(Nc2ccc(S(N)(=O)=O)cc2)nn1C(=O)c1c(F)cccc1F [N3-[4-(aminosulfonyl)phenyl]-1-(2,6-difluorobenzoyl)-1H-1,2,4-triazole-3,5-diamine] | 
11 |  | 20 (≈ 53.6 µM) | 60 (≈ 161 µM) | 100 (≈ 268 µM) | 190 (≈ 509 µM) | 16 (≈ 42.9 µM) |  | CC(=O)NC[C@H]1CN(c2ccc(N3Cc4cn(C)nc4C3)c(F)c2)C(=O)O1 [N-[[(5S)-3-[4-(2,6-dihydro-2-methylpyrrolo[3,4-c]pyrazol-5(4H)-yl)-3-fluorophenyl]-2-oxo-5-oxazolidinyl]methyl]-acetamide] | 
12 |  |  |  |  |  | < 1 |  | Cc1cc(C)c(Nc2ccnc(Nc3ccc(C#N)cc3)n2)c(C)c1 [TMC 120, 4-[[4-[(2,4,6-trimethylphenyl)amino]-2-pyrimidinyl]amino]benzonitrile] | 
13 | 300 | 60 (≈ 138 µM) |  | 520 (≈ 1190 µM) | 870 (≈ 2000 µM) | < 1 |  | Cc1cc(C#N)cc(C)c1Oc1nc(Nc2ccc(C#N)cc2)nc(N)c1Br [TMC 125, 4-[[6-amino-5-bromo-2-[(4-cyanophenyl)amino]-4-pyrimidinyl]oxy]-3,5-dimethylbenzonitrile] | 
